Source: patent US20230085307A1, “PYRIDAZINONE COMPOUND AND HERBICIDE” (NISSAN CHEMICAL CORPORATION, priority 2019, published 2023)

What was measured:
oval-leafed pondweed [1] = test: Test Example 1: herbicidal activity, application before weed generation under submerged conditions (Table 16, symbol C); format: in vivo, oval-leafed pondweed (Monochoria vaginalis)
In short: (§1)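 Alluvial soil was flooded to 4 cm depth, weed seeds were sown mixed and 2.5-leaf rice seedlings were transplanted. On sowing day, the compound's emulsion, diluted in water to a set dose, was applied to the water surface. Plants grew at 25–30 °C and were scored 0–5 after three weeks.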

green foxtail = test: Test Example 5: herbicidal effect by foliage application, plastic box (Table 20, symbol G); format: in vivo, green foxtail (Setaria viridis); details: foliage application; for G (green foxtail) herbicidal effect grade: evaluated 3 weeks after application
In short: (§2)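 Plants sown in sterilized diluvial soil and grown 14 days in a greenhouse at 25° C to 30° C, then sprayed on the foliage with the compound's emulsion diluted in water to a predetermined herbicide amount. Injury to weeds and crops scored three weeks after application on a visual rating scale.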

rice flat sedge = test: Test Example 3: herbicidal effect by foliage application, Wagner pot (Table 18, symbol E); format: in vivo, rice flat sedge (Cyperus iria)
In short: (§3)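 Plants were sown in alluvial soil held under 0.1–0.5 cm standing water and grown 14 days in a greenhouse at 25–30 °C. An emulsifiable formulation, water-diluted to the set dose, was then sprayed onto the foliage, and effects were scored three weeks later using previously defined criteria.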

redroot pigweed = test: Test Example 4: herbicidal effect by soil treatment (Table 19, symbol N); format: in vivo, redroot pigweed (Amaranthus retroflexus)
In short: (§4)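 Seeds were sown in sterilized diluvial soil and covered with about 1.5 cm of soil. An emulsion formulation diluted with water to a predetermined herbicide amount was sprayed evenly onto the soil surface. Plants grew in a greenhouse at 25° C. to 30° C., and the effect was scored three weeks after application using criteria from an earlier test.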

Chinese sprangletop = test: Test Example 3: herbicidal effect by foliage application, Wagner pot (Table 18, symbol D); format: in vivo, chinese sprangletop (Leptochloa chinensis)
In short: as §3

late watergrass = test: Test Example 1: herbicidal activity, application before weed generation under submerged conditions (Table 16, symbol A); format: in vivo, late watergrass (Echinochloa oryzicola)
In short: as §1

barnyard grass = test: Test Example 5: herbicidal effect by foliage application, plastic box (Table 20, symbol H); format: in vivo, barnyard grass (Echinochloa crus-galli); details: foliage application; for H (barnyard grass) herbicidal effect grade: evaluated 3 weeks after application
In short: as §2

southern crabgrass [2] = test: Test Example 5: herbicidal effect by foliage application, plastic box (Table 20, symbol F); format: in vivo, southern crabgrass (Digitaria ciliaris); details: foliage application; for F (southern crabgrass) herbicidal effect grade: evaluated 3 weeks after application
In short: as §2

windgrass [3] = test: Test Example 5: herbicidal effect by foliage application, plastic box (Table 20, symbol L); format: in vivo, windgrass (Apera spica-venti); details: foliage application; for L (windgrass) herbicidal effect grade: evaluated 3 weeks after application
In short: as §2

persian speedwell = test: Test Example 4: herbicidal effect by soil treatment (Table 19, symbol R); format: in vivo, Persian speedwell (Veronica persica)
In short: as §4

wild oat = test: Test Example 5: herbicidal effect by foliage application, plastic box (Table 20, symbol I); format: in vivo, wild oat (Avena fatua); details: foliage application; for I (wild oat) herbicidal effect grade: evaluated 3 weeks after application
In short: as §2

false cleavers = test: Test Example 4: herbicidal effect by soil treatment (Table 19, symbol Q); format: in vivo, false cleavers (Galium spurium)
In short: as §4

Japanese bulrush = test: Test Example 1: herbicidal activity, application before weed generation under submerged conditions (Table 16, symbol B); format: in vivo, Japanese bulrush (Schoenoplectus juncoides)
In short: as §1

lambsquarters = test: Test Example 5: herbicidal effect by foliage application, plastic box (Table 20, symbol O); format: in vivo, lambsquarters (Chenopodium album); details: foliage application; for O (lambsquarters) herbicidal effect grade: evaluated 3 weeks after application
In short: as §2

windgrass [4] = test: Test Example 4: herbicidal effect by soil treatment (Table 19, symbol L); format: in vivo, windgrass (Apera spica-venti)
In short: as §4

oval-leafed pondweed [5] = test: Test Example 2: herbicidal activity, application during weed generation under submerged conditions (Table 17, symbol C); format: in vivo, oval-leafed pondweed (Monochoria vaginalis); details: for herbicidal effect grade, C: oval-leafed pondweed: application during weed generation under submerged conditions
In short: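 Effect on each weed is rated three weeks post-treatment, using the same scoring criteria as the preceding test. Plants grow from mixed-sown seed in flooded alluvial soil (4 cm water) at 25° C. to 30° C., and are treated at one to two leaves with diluted emulsion dropped onto the water.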

southern crabgrass [6] = test: Test Example 4: herbicidal effect by soil treatment (Table 19, symbol F); format: in vivo, southern crabgrass (Digitaria ciliaris)
In short: as §4

[7] = amount of applied herbicide 320 g/ha
[8] = amount of applied herbicide 402 g/ha
[9] = amount of applied herbicide 214 g/ha
[10] = 214 g/ha, three weeks after application

SMILES	Herbicidal effect, C: oval-leafed pondweed (oval-leafed pondweed [1]; [7])	G (green foxtail) herbicidal effect grade (green foxtail; 320 g/ha)	Herbicidal effect on E (rice flat sedge), foliage application (rice flat sedge; [7])	N: redroot pigweed, herbicidal effect grade (redroot pigweed; [7])	Herbicidal effect on D (Chinese sprangletop), foliage application (Chinese sprangletop; [7])	Herbicidal effect, A: late watergrass (late watergrass; [7])	H (barnyard grass) herbicidal effect grade (barnyard grass; 320 g/ha)	F (southern crabgrass) herbicidal effect grade (southern crabgrass [2]; 320 g/ha)	L (windgrass) herbicidal effect grade (windgrass [3]; 320 g/ha)	R: persian speedwell, herbicidal effect grade (persian speedwell; [7])	I (wild oat) herbicidal effect grade (wild oat; 320 g/ha)	Q: false cleavers, herbicidal effect grade (false cleavers; [7])	Herbicidal effect, B: Japanese bulrush (Japanese bulrush; [7])	O (lambsquarters) herbicidal effect grade (lambsquarters; 320 g/ha)	L: windgrass, herbicidal effect grade (windgrass [4]; [7])	herbicidal effect grade, C: oval-leafed pondweed (oval-leafed pondweed [5]; [7])	F: southern crabgrass, herbicidal effect grade (southern crabgrass [6]; [7])	further results
CCCC(=O)Oc1c(C)nn(C)c(=O)c1-c1c(-c2ccc(SCC)cc2)oc2ccc(C)cc12 [9-058]	5 (Herbicidal rate of 90% or more (almost completely withered))	5 (Herbicidal rate of 90% or more (almost completely withered))	5 (Herbicidal rate of 90% or more (almost completely withered))	5 (Herbicidal rate of 90% or more (almost completely withered))	3 (Herbicidal rate of 40% or more and less than 70%)	5 (Herbicidal rate of 90% or more (almost completely withered))	4 (Herbicidal rate of 70% or more and less than 90%)	4 (Herbicidal rate of 70% or more and less than 90%)	0 (Herbicidal rate of 5% or less (almost no effect))	5 (Herbicidal rate of 90% or more (almost completely withered))	2 (Herbicidal rate of 20% or more and less than 40%)	0 (Herbicidal rate of 5% or less (almost no effect))	5 (Herbicidal rate of 90% or more (almost completely withered))	5 (Herbicidal rate of 90% or more (almost completely withered))	0 (Herbicidal rate of 5% or less (almost no effect))	4 (Herbicidal rate of 70% or more and less than 90%)	5 (Herbicidal rate of 90% or more (almost completely withered))	
CCCC(=O)Oc1c(C)nn(C)c(=O)c1-c1c(-c2ccc(SC(C)C)cc2)oc2ccc(C)cc12 [9-060]																		Herbicidal effect, C: oval-leafed pondweed (oval-leafed pondweed [1]; [8]): 5 (Herbicidal rate of 90% or more (almost completely withered)); G (green foxtail) herbicidal effect grade (green foxtail; 402 g/ha): 5 (Herbicidal rate of 90% or more (almost completely withered)); Herbicidal effect on E (rice flat sedge), foliage application (rice flat sedge; [8]): 5 (Herbicidal rate of 90% or more (almost completely withered)); N: redroot pigweed, herbicidal effect grade (redroot pigweed; [8]): 5 (Herbicidal rate of 90% or more (almost completely withered)); Herbicidal effect on D (Chinese sprangletop), foliage application (Chinese sprangletop; [8]): 2 (Herbicidal rate of 20% or more and less than 40%); Herbicidal effect, A: late watergrass (late watergrass; [8]): 5 (Herbicidal rate of 90% or more (almost completely withered)); H (barnyard grass) herbicidal effect grade (barnyard grass; 402 g/ha): 3 (Herbicidal rate of 40% or more and less than 70%); F (southern crabgrass) herbicidal effect grade (southern crabgrass [2]; 402 g/ha): 0 (Herbicidal rate of 5% or less (almost no effect)); L (windgrass) herbicidal effect grade (windgrass [3]; 402 g/ha): 0 (Herbicidal rate of 5% or less (almost no effect)); R: persian speedwell, herbicidal effect grade (persian speedwell; [8]): 5 (Herbicidal rate of 90% or more (almost completely withered)); I (wild oat) herbicidal effect grade (wild oat; 402 g/ha): 3 (Herbicidal rate of 40% or more and less than 70%); Q: false cleavers, herbicidal effect grade (false cleavers; [8]): 0 (Herbicidal rate of 5% or less (almost no effect)); Herbicidal effect, B: Japanese bulrush (Japanese bulrush; [8]): 4 (Herbicidal rate of 70% or more and less than 90%); O (lambsquarters) herbicidal effect grade (lambsquarters; 402 g/ha): 5 (Herbicidal rate of 90% or more (almost completely withered)); L: windgrass, herbicidal effect grade (windgrass [4]; [8]): 0 (Herbicidal rate of 5% or less (almost no effect)); herbicidal effect grade, C: oval-leafed pondweed (oval-leafed pondweed [5]; [8]): 4 (Herbicidal rate of 70% or more and less than 90%); F: southern crabgrass, herbicidal effect grade (southern crabgrass [6]; [8]): 1 (Herbicidal rate of 5% or more and less than 20%)
CCCC(=O)Oc1c(C)nn(C)c(=O)c1-c1c(-c2ccc(COC)cc2)oc2ccc(C)cc12 [9-062]	5 (Herbicidal rate of 90% or more (almost completely withered))	5 (Herbicidal rate of 90% or more (almost completely withered))	5 (Herbicidal rate of 90% or more (almost completely withered))	5 (Herbicidal rate of 90% or more (almost completely withered))	3 (Herbicidal rate of 40% or more and less than 70%)	5 (Herbicidal rate of 90% or more (almost completely withered))	4 (Herbicidal rate of 70% or more and less than 90%)	5 (Herbicidal rate of 90% or more (almost completely withered))	0 (Herbicidal rate of 5% or less (almost no effect))	5 (Herbicidal rate of 90% or more (almost completely withered))	0 (Herbicidal rate of 5% or less (almost no effect))	0 (Herbicidal rate of 5% or less (almost no effect))	5 (Herbicidal rate of 90% or more (almost completely withered))	5 (Herbicidal rate of 90% or more (almost completely withered))	0 (Herbicidal rate of 5% or less (almost no effect))	3 (Herbicidal rate of 40% or more and less than 70%)	4 (Herbicidal rate of 70% or more and less than 90%)	
COc1ccc2c(-c3c(O)c(C)nn(C)c3=O)c(-c3ccccc3OC)sc2c1 [Compound No. 3-065, 5-hydroxy-4-(6-methoxy-2-(2-methoxyphenyl)benzo[b]thiophen-3-yl)-2,6-dimethylpyridazin-3(2H)-one]																		Herbicidal effect, C: oval-leafed pondweed (oval-leafed pondweed [1]; [9]): 3 (Herbicidal rate of 40% or more and less than 70%); G: green foxtail, herbicidal effect grade (green foxtail; [10]): 5 (Herbicidal rate of 90% or more (almost completely withered)); herbicidal effect on rice flat sedge (E) (rice flat sedge; 214 g/ha): 5 (Herbicidal rate of 90% or more (almost completely withered)); N: redroot pigweed, herbicidal effect grade (redroot pigweed; [9]): 4 (Herbicidal rate of 70% or more and less than 90%); herbicidal effect on Chinese sprangletop (D) (Chinese sprangletop; 214 g/ha): 2 (Herbicidal rate of 20% or more and less than 40%); Herbicidal effect, A: late watergrass (late watergrass; [9]): 1 (Herbicidal rate of 5% or more and less than 20%); H: barnyard grass, herbicidal effect grade (barnyard grass; [10]): 5 (Herbicidal rate of 90% or more (almost completely withered)); F: southern crabgrass, herbicidal effect grade (southern crabgrass [2]; [10]): 4 (Herbicidal rate of 70% or more and less than 90%); L: windgrass, herbicidal effect grade (windgrass [3]; [10]): 4 (Herbicidal rate of 70% or more and less than 90%); R: persian speedwell, herbicidal effect grade (persian speedwell; [9]): 5 (Herbicidal rate of 90% or more (almost completely withered)); I: wild oat, herbicidal effect grade (wild oat; [10]): 4 (Herbicidal rate of 70% or more and less than 90%); Q: false cleavers, herbicidal effect grade (false cleavers; [9]): 4 (Herbicidal rate of 70% or more and less than 90%); Herbicidal effect, B: Japanese bulrush (Japanese bulrush; [9]): 3 (Herbicidal rate of 40% or more and less than 70%); O: lambsquarters, herbicidal effect grade (lambsquarters; [10]): 3 (Herbicidal rate of 40% or more and less than 70%); L: windgrass, herbicidal effect grade (windgrass [4]; [9]): 3 (Herbicidal rate of 40% or more and less than 70%); herbicidal effect rating, C: oval-leafed pondweed (oval-leafed pondweed [5]; AAH 214 g/ha, application during weed generation, submerged conditions): 3 (Herbicidal rate of 40% or more and less than 70%); F: southern crabgrass, herbicidal effect grade (southern crabgrass [6]; [9]): 3 (Herbicidal rate of 40% or more and less than 70%)
